“Also recorded” adds a separate entry of the source.
Experiments:
eNOS = eNOS phosphorylation (Ser1177) and total eNOS by immunoblotting in sinusoidal endothelial cells; assay type: cell-based, rat
Protocol: Cell isolation and culture. Sinusoidal endothelial cells were isolated from male Sprague-Dawley rats (450-500 g) (Harlan, Indianapolis, Ind.). In brief, after in situ perfusion of the liver with 20 mg/100 mg pronase (Roche Molecular Biochemicals, Indianapolis, Ind.), followed by collagenase (Worthington Biochemical, Lakewood, N.J.), dispersed cell suspensions were removed from a layered discontinuous density gradient of 8.2 and 15.6% Accudenz (Accurate Chemical and Scientific, Westbury, N.Y.), further purified by centrifugal elutriation (18 ml/min flow), and were grown in medium containing 20% serum (10% horse/calf). The purity of endothelial cells was documented by their uptake of fluorescently labeled di-l-acetoacetylated low-density lipoprotein as described (21). Only primary sinusoidal endothelial isolates of >95% purity were used for study. Experiments were performed with cells frorrr a minimum three different isolations (for all experiments).
Immunoblotting, Immunoblotting was performed by using specified primary antibodies, including anti-eNOS antibody (1:1,000; BD Transduction Laboratories, San Jose, Calif.), anti-phospho-eNOS-Ser^1177 (1:1,000; BD Transduction Laboratories or Cell Signaling Technology), anti-phospho-Akt, anti-Akt (Cell Signaling Technology, Beverly, Mass.), and horseradish peroxidase-conjugated secondary antibody. Specific signals were visualized using enhanced chemiluminescence as per the manufacturer's instructions and were scanned and quantitated with standard software.
Animal model of liver injury and portal hypedension. Liver injury and portal hypertension were induced by performing bile duct ligation in 450- to 500-gram male retired breeder Sprague-Dawley rats as described in Liu and 20- to 25-gram male BALB/c mice. Briefly, bile duct ligation was performed by surgical isolation and ligation of the common bile duct. This model creates a portal-based fibrogenic response and portal hypertension 10-14 days after surgery (Liu). For study of injured sinusoidal endothelial cells, we used the rat model of bile duct ligation (10-14 days postsurgery); for in vivo study (primarily to conserve the use of active compound), we used the mouse model of bile duct ligation (examining portal pressure 4 wk postsurgery). In sham-operated rats or mice, laparotomy without isolation and section of the bile duct was performed. Studies were approved by the local Institutional Animal Care and Use Committees. Portal pressure measurement. Portal hypertension was induced in male BALB/c mice by bile duct ligation as above. Cicletanine (5 mg·kg^−1·day^−1) or vehicle was given by gavage as a single daily dose for 10 days before portal pressure measurement as described in Liue. In brief, mice were anesthetized, and an intravenous catheter (Becton Dickinson Vascular Access, Sandy, Utah) was introduced in the portal vein and secured with a silk tie. A calibrated low-pressure transducer (Digi-Med, Louisville, Ky.) was connected to the portal vein catheter, and portal pressure was recorded continuously using the Digi-Med Integrator 200 System (Digi-bled).

hepatic stellate cells = test: Collagen lattice assay (ET-1 stimulated stellate cell contraction, coculture with sinusoidal endothelial cells); assay type: cell-based, rat; settings: 50 or 100 nM 2 h, then ET-1 10 nM; coculture on collagen lattices
Protocol: For coculture experiments, freshly isolated stellate cells and freshly isolated sinusoidal endothelial cells were isolated separately and mixed together on collagen-coated plates and cultured for 5 days. Sinusoidal endothelial cells were plated at a density of 200,000 cells/cm2, and stellate cells were at a density of 65,000 cells/cm2.
Collagen lattice assay. Contraction of hepatic stellate cells was performed as previously described with minor modifications (25). Briefly, individual wells of a 24-well culture dish were incubated with PBS containing 1% BSA (500 μl/well) for 1 h at 37° C. and then washed two times with PBS and allowed to air dry. Collagen gels were prepared by mixing 60% type I tail collagen (Upstate Laboratories), 10% 10×MEM (GIBCO), 10% 0.2 HEPES, and 20% DMEM (GIBCO) to make a final concentration of collagen of 2.4 mg/ml. The solution was added to the culture wells and incubated for 1 h at 37° C., and hepatic stellate cells and sinusoidal endothelial cells were isolated separately from normal rat livers and cocultured (each at a density of 100,000 cells/lattice) on collagen lattices for 5 days. Cells were changed to serum-free medium overnight, then exposed to cicletanine, and then stimulated with endothelin-1 (ET-1, 10 nM). Collagen lattices were released from their substrata, and gel contraction was measured from 0 to 30 min.

[1] = cicletanine 100 nM, normal sinusoidal endothelial cells

**Q.** What does the source list for `Cc1ncc2c(c1O)COC2c1ccc(Cl)cc1` (stereo not drawn) [cicletanine, 3-(4-chlorophenyl)-1,3-dihydro-7-hydroxy-6-methylfuro-(3,4-c) pyridine]?
**A.** phosphorylation of eNOS, dose dependence (eNOS; 50 or 100 nM, 2 h, normal sinusoidal endothelial cells): increased in a dose-dependent manner; time after exposure of greatest eNOS phosphorylation (eNOS; cicletanine 100 nM, 0-4 h): 1 h; eNOS phosphorylation at Ser1177 (eNOS; [1]): stimulated; also recorded: increased; total eNOS expression (eNOS; [1]): unchanged; eNOS phosphorylation (eNOS; sinusoidal endothelial cells injured by bile duct ligation, 2 h): restored eNOS phosphorylation to above basal levels; stellate cell contraction (hepatic stellate cells): inhibited stellate cell contraction in a dose-dependent manner

— patent US20170056380A1, “Systems, Methods, Techniques, and Compounds in Research and Treatment of Portal Hypertension and other Conditions” (priority 2014, published 2017)
